Measurements reported in article PMC8213057, “Targeting ALK2: An Open Science Approach to Developing Therapeutics for the Treatment of Diffuse Intrinsic Pontine Glioma” (Journal of Medicinal Chemistry, 2020).
“And” between values parts separate entries of the source, which are not always exact repeats. Identical values can stand only once.

Key:
ITK = biological target: T1, ITK (Homo sapiens, UniProt Q08881); conditions: 1 μM; Run 1, Run 2
T1 sequence (Q08881 1-620): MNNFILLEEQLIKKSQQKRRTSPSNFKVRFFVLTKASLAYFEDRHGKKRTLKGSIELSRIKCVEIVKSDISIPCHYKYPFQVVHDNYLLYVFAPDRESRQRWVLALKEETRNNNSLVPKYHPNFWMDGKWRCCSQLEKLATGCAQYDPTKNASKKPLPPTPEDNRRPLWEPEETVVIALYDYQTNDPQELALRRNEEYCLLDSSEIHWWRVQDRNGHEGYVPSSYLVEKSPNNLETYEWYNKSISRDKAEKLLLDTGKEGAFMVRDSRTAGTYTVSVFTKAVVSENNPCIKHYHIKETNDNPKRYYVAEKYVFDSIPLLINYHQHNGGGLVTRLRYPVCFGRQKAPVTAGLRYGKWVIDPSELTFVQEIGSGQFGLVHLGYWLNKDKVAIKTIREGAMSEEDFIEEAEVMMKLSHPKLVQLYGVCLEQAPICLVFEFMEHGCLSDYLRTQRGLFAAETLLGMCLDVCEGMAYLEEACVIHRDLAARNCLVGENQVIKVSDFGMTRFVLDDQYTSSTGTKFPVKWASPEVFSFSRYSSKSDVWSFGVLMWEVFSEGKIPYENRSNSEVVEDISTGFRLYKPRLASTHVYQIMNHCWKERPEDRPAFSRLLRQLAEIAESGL

LRRK2 = LRRK2 (Homo sapiens, UniProt Q5S007); conditions: 1 μM; Run 1, Run 2
LRRK2, sequence (Q5S007 whole entry): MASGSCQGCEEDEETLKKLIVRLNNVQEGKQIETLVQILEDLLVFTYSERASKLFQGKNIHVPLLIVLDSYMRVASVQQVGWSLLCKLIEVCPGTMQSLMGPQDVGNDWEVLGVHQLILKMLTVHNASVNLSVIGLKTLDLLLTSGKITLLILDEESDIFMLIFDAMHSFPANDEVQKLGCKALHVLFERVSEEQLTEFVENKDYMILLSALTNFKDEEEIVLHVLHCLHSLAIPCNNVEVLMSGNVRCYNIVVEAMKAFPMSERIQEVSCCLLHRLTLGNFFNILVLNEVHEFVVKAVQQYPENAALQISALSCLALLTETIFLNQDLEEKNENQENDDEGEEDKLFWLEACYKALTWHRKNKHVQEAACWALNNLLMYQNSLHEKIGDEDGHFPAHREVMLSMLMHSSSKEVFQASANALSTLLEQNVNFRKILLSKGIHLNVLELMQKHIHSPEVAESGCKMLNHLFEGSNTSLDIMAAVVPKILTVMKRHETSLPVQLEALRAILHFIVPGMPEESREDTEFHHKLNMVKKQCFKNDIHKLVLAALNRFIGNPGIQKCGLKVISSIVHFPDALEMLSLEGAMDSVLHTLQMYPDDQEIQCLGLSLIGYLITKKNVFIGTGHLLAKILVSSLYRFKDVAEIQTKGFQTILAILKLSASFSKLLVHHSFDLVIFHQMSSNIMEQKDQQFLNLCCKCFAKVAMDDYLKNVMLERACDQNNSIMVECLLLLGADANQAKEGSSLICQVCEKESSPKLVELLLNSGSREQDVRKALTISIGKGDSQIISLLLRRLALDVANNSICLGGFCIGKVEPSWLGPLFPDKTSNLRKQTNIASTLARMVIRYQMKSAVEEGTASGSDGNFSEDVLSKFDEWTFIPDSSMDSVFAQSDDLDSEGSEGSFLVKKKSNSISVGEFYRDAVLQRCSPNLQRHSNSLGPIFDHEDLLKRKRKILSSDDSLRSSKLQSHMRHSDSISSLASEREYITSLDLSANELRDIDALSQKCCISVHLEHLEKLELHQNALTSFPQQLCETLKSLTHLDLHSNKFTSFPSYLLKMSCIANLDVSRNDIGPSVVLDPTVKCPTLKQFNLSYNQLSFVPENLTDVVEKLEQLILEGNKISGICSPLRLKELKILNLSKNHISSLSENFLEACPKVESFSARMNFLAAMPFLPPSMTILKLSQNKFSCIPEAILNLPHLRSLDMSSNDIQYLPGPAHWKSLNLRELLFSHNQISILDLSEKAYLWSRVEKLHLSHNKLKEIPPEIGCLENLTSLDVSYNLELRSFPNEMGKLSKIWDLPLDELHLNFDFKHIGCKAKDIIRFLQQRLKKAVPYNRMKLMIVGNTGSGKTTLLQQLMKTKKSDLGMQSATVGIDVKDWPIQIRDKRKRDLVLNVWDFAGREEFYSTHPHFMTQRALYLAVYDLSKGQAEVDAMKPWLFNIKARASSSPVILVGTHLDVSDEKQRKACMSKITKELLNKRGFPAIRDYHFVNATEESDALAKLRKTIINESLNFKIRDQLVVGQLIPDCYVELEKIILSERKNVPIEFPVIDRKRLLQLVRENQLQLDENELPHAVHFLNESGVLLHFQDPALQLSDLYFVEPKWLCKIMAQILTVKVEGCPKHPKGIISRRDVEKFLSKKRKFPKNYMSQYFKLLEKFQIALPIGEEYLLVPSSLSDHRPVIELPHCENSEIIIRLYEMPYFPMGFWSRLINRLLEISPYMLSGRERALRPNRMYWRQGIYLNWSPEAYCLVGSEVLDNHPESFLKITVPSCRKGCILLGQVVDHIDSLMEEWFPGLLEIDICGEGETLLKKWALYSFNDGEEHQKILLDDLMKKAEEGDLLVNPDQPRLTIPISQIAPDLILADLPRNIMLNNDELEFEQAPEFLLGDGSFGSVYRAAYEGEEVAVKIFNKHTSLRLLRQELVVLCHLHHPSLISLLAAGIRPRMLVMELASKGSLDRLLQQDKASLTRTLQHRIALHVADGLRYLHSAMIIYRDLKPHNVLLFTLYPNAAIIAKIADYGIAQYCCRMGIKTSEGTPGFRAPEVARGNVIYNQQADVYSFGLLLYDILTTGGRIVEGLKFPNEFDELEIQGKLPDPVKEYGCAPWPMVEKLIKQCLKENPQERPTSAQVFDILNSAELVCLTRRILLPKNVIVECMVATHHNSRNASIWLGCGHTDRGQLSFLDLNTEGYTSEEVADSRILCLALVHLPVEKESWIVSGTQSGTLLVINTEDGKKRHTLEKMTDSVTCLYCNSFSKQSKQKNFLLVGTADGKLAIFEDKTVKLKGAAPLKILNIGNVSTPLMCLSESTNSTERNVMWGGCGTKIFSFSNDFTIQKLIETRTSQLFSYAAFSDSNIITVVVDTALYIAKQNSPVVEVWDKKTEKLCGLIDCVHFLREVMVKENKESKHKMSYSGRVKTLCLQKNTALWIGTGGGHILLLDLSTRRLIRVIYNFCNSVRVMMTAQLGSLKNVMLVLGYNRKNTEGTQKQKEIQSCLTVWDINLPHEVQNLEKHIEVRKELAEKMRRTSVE

MEK5 = biological target: T2, MEK5 (Homo sapiens, UniProt Q13163); conditions: 1 μM; Run 1, Run 2
T2 sequence (Q13163 1-448): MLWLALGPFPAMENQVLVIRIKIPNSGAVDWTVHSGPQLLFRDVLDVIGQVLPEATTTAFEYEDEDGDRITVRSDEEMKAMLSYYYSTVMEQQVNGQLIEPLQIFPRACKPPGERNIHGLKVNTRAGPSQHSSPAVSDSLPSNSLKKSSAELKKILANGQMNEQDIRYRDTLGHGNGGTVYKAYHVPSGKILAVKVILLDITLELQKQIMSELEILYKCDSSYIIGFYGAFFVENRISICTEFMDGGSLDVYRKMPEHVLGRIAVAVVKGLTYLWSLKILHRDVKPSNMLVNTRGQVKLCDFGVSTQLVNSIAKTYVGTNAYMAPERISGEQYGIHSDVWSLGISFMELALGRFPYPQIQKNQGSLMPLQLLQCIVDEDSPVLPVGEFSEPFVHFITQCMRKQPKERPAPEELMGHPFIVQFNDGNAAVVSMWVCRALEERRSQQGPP

PKCg = PKCg (Homo sapiens, UniProt P05129); conditions: 1 μM; Run 1, Run 2
TTBK1 = TTBK1 (Homo sapiens, UniProt Q5TCY1); conditions: 1 μM; Run 1, Run 2
TTBK1, sequence (Q5TCY1 whole entry): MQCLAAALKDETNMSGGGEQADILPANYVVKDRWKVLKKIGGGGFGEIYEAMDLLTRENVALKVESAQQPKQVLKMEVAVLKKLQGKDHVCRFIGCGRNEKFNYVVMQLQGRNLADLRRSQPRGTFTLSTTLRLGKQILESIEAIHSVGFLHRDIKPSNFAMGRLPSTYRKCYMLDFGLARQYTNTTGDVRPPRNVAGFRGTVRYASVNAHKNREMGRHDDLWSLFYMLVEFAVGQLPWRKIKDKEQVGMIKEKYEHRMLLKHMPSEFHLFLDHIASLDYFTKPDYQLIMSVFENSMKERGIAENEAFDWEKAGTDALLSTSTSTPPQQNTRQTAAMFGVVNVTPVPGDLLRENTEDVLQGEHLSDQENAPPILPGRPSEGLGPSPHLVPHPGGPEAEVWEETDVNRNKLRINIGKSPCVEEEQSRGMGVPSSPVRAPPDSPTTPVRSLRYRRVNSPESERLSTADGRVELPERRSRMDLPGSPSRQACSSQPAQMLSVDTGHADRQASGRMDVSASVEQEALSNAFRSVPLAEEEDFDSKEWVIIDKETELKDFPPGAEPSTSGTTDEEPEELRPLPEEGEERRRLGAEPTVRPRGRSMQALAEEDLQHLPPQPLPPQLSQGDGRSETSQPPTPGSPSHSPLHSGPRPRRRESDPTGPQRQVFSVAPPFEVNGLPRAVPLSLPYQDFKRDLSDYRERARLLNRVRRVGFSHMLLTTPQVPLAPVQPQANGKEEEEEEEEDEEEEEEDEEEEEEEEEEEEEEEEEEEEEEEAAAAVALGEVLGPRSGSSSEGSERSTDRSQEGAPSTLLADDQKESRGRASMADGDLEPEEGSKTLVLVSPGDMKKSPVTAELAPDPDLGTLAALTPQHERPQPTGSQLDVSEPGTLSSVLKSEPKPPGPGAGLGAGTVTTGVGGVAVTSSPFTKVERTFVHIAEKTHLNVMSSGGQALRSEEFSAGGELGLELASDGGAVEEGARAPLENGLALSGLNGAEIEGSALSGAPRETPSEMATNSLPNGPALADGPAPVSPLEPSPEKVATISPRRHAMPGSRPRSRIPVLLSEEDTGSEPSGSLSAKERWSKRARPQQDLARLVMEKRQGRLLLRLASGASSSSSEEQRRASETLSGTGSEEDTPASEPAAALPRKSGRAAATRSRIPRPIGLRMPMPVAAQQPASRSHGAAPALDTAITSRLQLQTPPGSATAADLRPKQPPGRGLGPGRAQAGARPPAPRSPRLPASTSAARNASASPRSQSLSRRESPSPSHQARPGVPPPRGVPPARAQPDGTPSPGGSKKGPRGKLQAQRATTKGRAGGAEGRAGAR

ULK2 = biological target: T3, ULK2 (Homo sapiens, UniProt Q8IYT8); conditions: 1 μM; Run 1, Run 2
T3 sequence (Q8IYT8 1-1036): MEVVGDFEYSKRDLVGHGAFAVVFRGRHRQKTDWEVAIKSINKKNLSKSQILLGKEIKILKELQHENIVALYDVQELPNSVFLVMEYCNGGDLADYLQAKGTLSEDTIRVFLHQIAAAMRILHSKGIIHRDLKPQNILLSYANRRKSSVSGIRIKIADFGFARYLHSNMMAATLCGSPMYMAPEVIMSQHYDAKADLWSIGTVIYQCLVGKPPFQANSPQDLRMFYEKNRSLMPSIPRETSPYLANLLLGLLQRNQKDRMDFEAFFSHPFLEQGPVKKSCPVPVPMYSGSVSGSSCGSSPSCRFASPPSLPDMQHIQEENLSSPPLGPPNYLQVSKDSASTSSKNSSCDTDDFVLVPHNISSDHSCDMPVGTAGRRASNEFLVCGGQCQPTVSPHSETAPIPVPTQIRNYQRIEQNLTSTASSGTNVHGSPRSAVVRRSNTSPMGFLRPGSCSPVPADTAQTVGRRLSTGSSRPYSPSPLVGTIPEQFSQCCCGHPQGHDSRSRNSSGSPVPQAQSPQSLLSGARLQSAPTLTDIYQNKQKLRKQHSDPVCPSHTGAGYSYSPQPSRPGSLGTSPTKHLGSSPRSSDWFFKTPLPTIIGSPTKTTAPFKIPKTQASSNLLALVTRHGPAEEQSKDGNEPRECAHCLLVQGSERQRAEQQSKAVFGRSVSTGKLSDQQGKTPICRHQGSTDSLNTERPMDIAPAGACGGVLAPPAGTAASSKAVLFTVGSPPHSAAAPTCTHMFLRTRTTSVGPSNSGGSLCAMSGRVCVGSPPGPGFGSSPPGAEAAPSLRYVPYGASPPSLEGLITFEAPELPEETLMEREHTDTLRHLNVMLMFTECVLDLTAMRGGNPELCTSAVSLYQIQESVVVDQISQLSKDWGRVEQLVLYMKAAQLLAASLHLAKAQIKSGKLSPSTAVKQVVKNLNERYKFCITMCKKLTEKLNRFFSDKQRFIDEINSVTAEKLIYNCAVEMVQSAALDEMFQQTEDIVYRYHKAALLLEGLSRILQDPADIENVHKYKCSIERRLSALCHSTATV

MEKK3 = biological target: T4, MEKK3 (Homo sapiens, UniProt Q99759); experiment: biochemical; conditions: read-out: % enzyme activity, 1 μM; Run 1, Run 2
T4 sequence (Q99759 1-626): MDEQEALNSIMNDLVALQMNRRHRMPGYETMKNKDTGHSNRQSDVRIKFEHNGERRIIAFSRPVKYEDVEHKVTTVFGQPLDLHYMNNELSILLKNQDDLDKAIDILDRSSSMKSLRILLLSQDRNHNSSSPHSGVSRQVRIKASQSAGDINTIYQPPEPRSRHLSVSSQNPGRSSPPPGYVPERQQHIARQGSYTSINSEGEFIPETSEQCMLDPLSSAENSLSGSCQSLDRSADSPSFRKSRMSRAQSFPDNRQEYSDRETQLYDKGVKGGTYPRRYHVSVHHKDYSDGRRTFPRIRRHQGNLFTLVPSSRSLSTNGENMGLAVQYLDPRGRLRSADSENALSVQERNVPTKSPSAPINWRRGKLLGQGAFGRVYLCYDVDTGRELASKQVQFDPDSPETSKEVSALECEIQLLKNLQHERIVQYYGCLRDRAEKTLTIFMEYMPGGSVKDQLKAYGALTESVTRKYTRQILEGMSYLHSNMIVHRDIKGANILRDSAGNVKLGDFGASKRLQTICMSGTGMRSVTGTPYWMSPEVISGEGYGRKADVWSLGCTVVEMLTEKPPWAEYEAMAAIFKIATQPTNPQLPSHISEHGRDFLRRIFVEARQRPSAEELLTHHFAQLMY

Row | SMILES | % enzyme activity at 1 μM (DYRK1B) | % enzyme activity (ITK) [%] | % enzyme activity (LRRK2) [%] | % enzyme activity (MEK5) [%] | % enzyme activity (PKCg) [%] | % enzyme activity (TTBK1) [%] | % enzyme activity (ULK2) [%] | remaining activity at 1 µM (MEKK3) [%]
1 | COc1cc(-c2cncc(-c3ccc(N4CCN(C)CC4)cc3)c2C)cc(F)c1C(N)=O [Compound 26a, 2-Fluoro-6-methoxy-4-(4-methyl-5-(4-(4-methylpiperazin-1-yl)phenyl)pyridin-3-yl)benzamide] | 40.6% and 39.8% | 103.48 | 59.73 | 85.95 | 96.27 | 96.78 | 73.24 | 98
2 | COc1cc(-c2cncc(-c3ccc(N4C[C@@H](C)N(C)[C@@H](C)C4)cc3)c2C)cc(F)c1C(N)=O [Compound 26c, 2-Fluoro-6-methoxy-4-(4-methyl-5-(4-((3R,5S)-3,4,5-trimethylpiperazin-1-yl)phenyl)pyridin-3-yl)benzamide] | 59.2% and 58.5% | 100.51 | 77.27 | 92.97 | 96.41 | 98.52 | 84.46 | 109
